Laboratory results from patent US12404262B2 (priority 2021, dated 2025).
Converted amounts (≈) assume the structure as drawn. Read-outs that look alike come from different tables or passages of the source.

How the values were obtained:
physchem = conditions: 25 °C, thermodynamic from solid
[1] = Solubility in simulated intestinal fluids (FaSSIF/FeSSIF); conditions: 25 °C, thermodynamic from solid
[2] = 0.1N HCl, 1.0% DMSO, 24-hour incubation at ambient temperature, maximum theoretical 100 μM, first value of the cell
[3] = 1×PBS buffer (pH 7.4), 1.0% DMSO, 24-hour incubation at ambient temperature, maximum theoretical 100 μM, second value of the cell
[4] = fasted state simulated intestinal fluid (FaSSIF), fassif
[5] = fed state simulated intestinal fluid (FeSSIF), fessif

| SMILES | pH 2 solubility (pH 2) | pH 7 solubility (pH 7.4) | solubility (physchem; fassif) [µg/mL] | solubility (physchem; fessif) [µg/mL] | pH 2 solubility [2] | pH 7 solubility [3] | solubility [1, 4] [µg/mL] | solubility [1, 5] [µg/mL] |
| --- | --- | --- | --- | --- | --- | --- | --- | --- |
| CN(CCN(C)C(=O)N(c1nn(CC(F)(F)F)c2c(-c3ccc(C#CC(C)(C)S(C)(=O)=O)nc3[C@H](Cc3cc(F)cc(F)c3)NC(=O)Cn3nc(C(F)(F)F)c4c3C(F)(F)[C@@H]3C[C@H]43)ccc(Cl)c12)S(C)(=O)=O)C(=O)OCOP(=O)(O)O [Compound 83, (phosphonooxy)methyl (2-(3-(4-chloro-7-(2-((S)-1-(2-((3bS,4aR)-5,5-difluoro-3-(trifluoromethyl)-3b,4,4a,5-tetrahydro-1H-cyclopropa[3,4]cyclopenta[1,2-c]pyrazol-1-yl)acetamido)-2-(3,5-difluorophenyl)ethyl)-6-(3-methyl-3-(methylsulfonyl)but-1-yn-1-yl)pyridin-3-yl)-1-(2,2,2-trifluoroethyl)-1H-indazol-3-yl)-1-methyl-3-(methylsulfonyl)ureido)ethyl)(methyl)carbamate] | 1/61 μM | 1/61 μM | 1950 (≈ 1580 µM) | 500 (≈ 404 µM) | – | – | – | – |
| CC(C)(C#Cc1ccc(-c2ccc(Cl)c3c(N(C(=O)OCCNC(=O)OCOP(=O)(O)O)S(C)(=O)=O)nn(CC(F)(F)F)c23)c([C@H](Cc2cc(F)cc(F)c2)NC(=O)Cn2nc(C(F)(F)F)c3c2C(F)(F)[C@@H]2C[C@H]32)n1)S(C)(=O)=O [Compound 137, 2-((((phosphonooxy)methoxy)carbonyl)amino)ethyl (4-chloro-7-(2-((S)-1-(2-((3bS,4aR)-5,5-difluoro-3-(trifluoromethyl)-3b,4,4a,5-tetrahydro-1H-cyclopropa[3,4]cyclopenta[1,2-c]pyrazol-1-yl)acetamido)-2-(3,5-difluorophenyl)ethyl)-6-(3-methyl-3-(methylsulfonyl)but-1-yn-1-yl)pyridin-3-yl)-1-(2,2,2-trifluoroethyl)-1H-indazol-3-yl)(methylsulfonyl)carbamate] | – | – | 950 (≈ 786 µM) | – | 1 μM | 85 μM | – | – |
| CC(C)(C#Cc1ccc(-c2ccc(Cl)c3c(N(C(=O)OCCNC(=N)N)S(C)(=O)=O)nn(CC(F)(F)F)c23)c([C@H](Cc2cc(F)cc(F)c2)NC(=O)Cn2nc(C(F)(F)F)c3c2C(F)(F)[C@@H]2C[C@H]32)n1)S(C)(=O)=O [Compound 123, 2-guanidinoethyl (4-chloro-7-(2-((S)-1-(2-((3bS,4aR)-5,5-difluoro-3-(trifluoromethyl)-3b,4,4a,5-tetrahydro-1H-cyclopropa[3,4]cyclopenta[1,2-c]pyrazol-1-yl)acetamido)-2-(3,5-difluorophenyl)ethyl)-6-(3-methyl-3-(methylsulfonyl)but-1-yn-1-yl)pyridin-3-yl)-1-(2,2,2-trifluoroethyl)-1H-indazol-3-yl)(methylsulfonyl)carbamate] | – | – | – | – | 78 μM | 71 μM | 120 (≈ 109 µM) | 153 (≈ 139 µM) |
| CC(C)(C#Cc1ccc(-c2ccc(Cl)c3c(N(C(=O)C(=O)O)S(C)(=O)=O)nn(CC(F)(F)F)c23)c([C@H](Cc2cc(F)cc(F)c2)NC(=O)Cn2nc(C(F)(F)F)c3c2C(F)(F)[C@@H]2C[C@H]32)n1)S(C)(=O)=O [Compound 16] | – | – | – | – | 1 μM | 92 μM | 710 (≈ 682 µM) | 497 (≈ 478 µM) |
| CC(C)(C#Cc1ccc(-c2ccc(Cl)c3c(N(C(=O)N(CCNC(=O)OCOP(=O)(O)O)CCC(=O)O)S(C)(=O)=O)nn(CC(F)(F)F)c23)c([C@H](Cc2cc(F)cc(F)c2)NC(=O)Cn2nc(C(F)(F)F)c3c2C(F)(F)[C@@H]2C[C@H]32)n1)S(C)(=O)=O [Compound 80, 3-(3-(4-chloro-7-(2-((S)-1-(2-((3bS,4aR)-5,5-difluoro-3-(trifluoromethyl)-3b,4,4a,5-tetrahydro-1H-cyclopropa[3,4]cyclopenta[1,2-c]pyrazol-1-yl)acetamido)-2-(3,5-difluorophenyl)ethyl)-6-(3-methyl-3-(methylsulfonyl)but-1-yn-1-yl)pyridin-3-yl)-1-(2,2,2-trifluoroethyl)-1H-indazol-3-yl)-3-(methylsulfonyl)-1-(2-((((phosphonooxy)methoxy)carbonyl)amino)ethyl)ureido)propanoic acid] | – | – | – | – | 6 μM | 100 μM | 7550 (≈ 5900 µM) | 1720 (≈ 1350 µM) |
| CC(C)(C#Cc1ccc(-c2ccc(Cl)c3c(N(C(=O)OCOP(=O)(O)O)S(C)(=O)=O)nn(CC(F)(F)F)c23)c([C@H](Cc2cc(F)cc(F)c2)NC(=O)Cn2nc(C(F)(F)F)c3c2C(F)(F)[C@@H]2C[C@H]32)n1)S(C)(=O)=O [Compound 90, (phosphonooxy)methyl (4-chloro-7-(2-((S)-1-(2-((3bS,4aR)-5,5-difluoro-3-(trifluoromethyl)-3b,4,4a,5-tetrahydro-1H-cyclopropa[3,4]cyclopenta[1,2-c]pyrazol-1-yl)acetamido)-2-(3,5-difluorophenyl)ethyl)-6-(3-methyl-3-(methylsulfonyl)but-1-yn-1-yl)pyridin-3-yl)-1-(2,2,2-trifluoroethyl)-1H-indazol-3-yl)(methylsulfonyl)carbamate] | – | – | – | – | 1 μM | 48 μM | 2 (≈ 1.78 µM) | 3 (≈ 2.67 µM) |
| CN(CCCC(=O)O)C(=O)N(c1nn(CC(F)(F)F)c2c(-c3ccc(C#CC(C)(C)S(C)(=O)=O)nc3[C@H](Cc3cc(F)cc(F)c3)NC(=O)Cn3nc(C(F)(F)F)c4c3C(F)(F)[C@@H]3C[C@H]43)ccc(Cl)c12)S(C)(=O)=O [Compound 46, 4-(3-(4-chloro-7-(2-((S)-1-(2-((3bS,4aR)-5,5-difluoro-3-(trifluoromethyl)-3b,4,4a,5-tetrahydro-1H-cyclopropa[3,4]cyclopenta[1,2-c]pyrazol-1-yl)acetamido)-2-(3,5-difluorophenyl)ethyl)-6-(3-methyl-3-(methylsulfonyl)but-1-yn-1-yl)pyridin-3-yl)-1-(2,2,2-trifluoroethyl)-1H-indazol-3-yl)-1-methyl-3-(methylsulfonyl)ureido)butanoic acid] | – | – | – | – | 1 μM | 10 μM | 9 (≈ 8.1 µM) | 3 (≈ 2.7 µM) |
| CC(C)(C#Cc1ccc(-c2ccc(Cl)c3c(N(C(=O)N[C@@H](CO)C(=O)O)S(C)(=O)=O)nn(CC(F)(F)F)c23)c([C@H](Cc2cc(F)cc(F)c2)NC(=O)Cn2nc(C(F)(F)F)c3c2C(F)(F)[C@@H]2C[C@H]32)n1)S(C)(=O)=O [Compound 58, ((4-chloro-7-(2-((S)-1-(2-((3bS,4aR)-5,5-difluoro-3-(trifluoromethyl)-3b,4,4a,5-tetrahydro-1H-cyclopropa[3,4]cyclopenta[1,2-c]pyrazol-1-yl)acetamido)-2-(3,5-difluorophenyl)ethyl)-6-(3-methyl-3-(methylsulfonyl)but-1-yn-1-yl)pyridin-3-yl)-1-(2,2,2-trifluoroethyl)-1H-indazol-3-yl)(methylsulfonyl)carbamoyl)-L-serine] | – | – | – | – | 1 μM | 8 μM | 813 (≈ 740 µM) | 120 (≈ 109 µM) |
| CC(C)(C#Cc1ccc(-c2ccc(Cl)c3c(N(C(=O)OCC(=O)OCOP(=O)(O)O)S(C)(=O)=O)nn(CC(F)(F)F)c23)c([C@H](Cc2cc(F)cc(F)c2)NC(=O)Cn2nc(C(F)(F)F)c3c2C(F)(F)[C@@H]2C[C@H]32)n1)S(C)(=O)=O [Compound 94, (phosphonooxy)methyl 2-(((4-chloro-7-(2-((S)-1-(2-((3bS,4aR)-5,5-difluoro-3-(trifluoromethyl)-3b,4,4a,5-tetrahydro-1H-cyclopropa[3,4]cyclopenta[1,2-c]pyrazol-1-yl)acetamido)-2-(3,5-difluorophenyl)ethyl)-6-(3-methyl-3-(methylsulfonyl)but-1-yn-1-yl)pyridin-3-yl)-1-(2,2,2-trifluoroethyl)-1H-indazol-3-yl)(methylsulfonyl)carbamoyl)oxy)acetate] | – | – | – | – | <1/1 μM | <1/1 μM | 481 (≈ 408 µM) | 189 (≈ 160 µM) |
| CN(CCC(=O)O)C(=O)N(c1nn(CC(F)(F)F)c2c(-c3ccc(C#CC(C)(C)S(C)(=O)=O)nc3[C@H](Cc3cc(F)cc(F)c3)NC(=O)Cn3nc(C(F)(F)F)c4c3C(F)(F)[C@@H]3C[C@H]43)ccc(Cl)c12)S(C)(=O)=O [Compound 45, 3-(3-(4-chloro-7-(2-((S)-1-(2-((3bS,4aR)-5,5-difluoro-3-(trifluoromethyl)-3b,4,4a,5-tetrahydro-1H-cyclopropa[3,4]cyclopenta[1,2-c]pyrazol-1-yl)acetamido)-2-(3,5-difluorophenyl)ethyl)-6-(3-methyl-3-(methylsulfonyl)but-1-yn-1-yl)pyridin-3-yl)-1-(2,2,2-trifluoroethyl)-1H-indazol-3-yl)-1-methyl-3-(methylsulfonyl)ureido)propanoic acid] | – | – | – | – | 1 μM | 20 μM | 14 (≈ 12.8 µM) | 1 (≈ 0.911 µM) |
| CC(C)(C#Cc1ccc(-c2ccc(Cl)c3c(N(C(=O)OC[C@H](CC(=O)O)NC(=O)C(=O)O)S(C)(=O)=O)nn(CC(F)(F)F)c23)c([C@H](Cc2cc(F)cc(F)c2)NC(=O)Cn2nc(C(F)(F)F)c3c2C(F)(F)[C@@H]2C[C@H]32)n1)S(C)(=O)=O [Compound 131] | – | – | – | – | 1 μM | 73 μM | 816 (≈ 688 µM) | 427 (≈ 360 µM) |
